From US20260374751A1, “AMIDE PRODRUGS AND USES THEREOF” (Autobahn Therapeutics, Inc., priority 2022, published 2026)

molecular target: S1P5 (Homo sapiens, UniProt Q9H228); assay: S1P5 receptor agonism (EC50 statement); assay type: biochemical; details: not given
Sequence (Q9H228 whole entry, species assumed): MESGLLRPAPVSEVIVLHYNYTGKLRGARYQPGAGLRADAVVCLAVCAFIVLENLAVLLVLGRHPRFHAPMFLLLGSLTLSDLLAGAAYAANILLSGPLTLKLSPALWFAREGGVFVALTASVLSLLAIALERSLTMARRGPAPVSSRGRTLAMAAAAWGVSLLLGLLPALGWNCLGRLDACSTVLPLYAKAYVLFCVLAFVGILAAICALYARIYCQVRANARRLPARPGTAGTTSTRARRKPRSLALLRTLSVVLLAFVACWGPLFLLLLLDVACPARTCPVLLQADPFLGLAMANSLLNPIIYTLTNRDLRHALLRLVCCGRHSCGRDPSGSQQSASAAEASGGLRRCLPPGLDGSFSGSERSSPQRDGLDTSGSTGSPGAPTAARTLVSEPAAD

Row | Compound | EC50 [nM]
1 | CCCc1ccc(COc2ccc3c(c2)CCC(CN2CC(C(=O)O)C2)=C3C)c(OC)c1 [Compound 1, ceralifimod] | 1

molecular target: T1, recombinant human FAAH (rhFAAH) (Homo sapiens, UniProt O00519); assay: FAAH substrate evaluation: formation of acid metabolite by purified recombinant human FAAH (rhFAAH); assay type: biochemical; details: role: substrate; 1 μM test compound, 0.5 ng/μL rhFAAH, 1.25% ethanol or 1 μM PF-3845 (FAAH inhibitor), 0.1% BSA, Tris-EDTA pH 8.0, room temperature, 0-60 minutes
T1 sequence (O00519 1-579): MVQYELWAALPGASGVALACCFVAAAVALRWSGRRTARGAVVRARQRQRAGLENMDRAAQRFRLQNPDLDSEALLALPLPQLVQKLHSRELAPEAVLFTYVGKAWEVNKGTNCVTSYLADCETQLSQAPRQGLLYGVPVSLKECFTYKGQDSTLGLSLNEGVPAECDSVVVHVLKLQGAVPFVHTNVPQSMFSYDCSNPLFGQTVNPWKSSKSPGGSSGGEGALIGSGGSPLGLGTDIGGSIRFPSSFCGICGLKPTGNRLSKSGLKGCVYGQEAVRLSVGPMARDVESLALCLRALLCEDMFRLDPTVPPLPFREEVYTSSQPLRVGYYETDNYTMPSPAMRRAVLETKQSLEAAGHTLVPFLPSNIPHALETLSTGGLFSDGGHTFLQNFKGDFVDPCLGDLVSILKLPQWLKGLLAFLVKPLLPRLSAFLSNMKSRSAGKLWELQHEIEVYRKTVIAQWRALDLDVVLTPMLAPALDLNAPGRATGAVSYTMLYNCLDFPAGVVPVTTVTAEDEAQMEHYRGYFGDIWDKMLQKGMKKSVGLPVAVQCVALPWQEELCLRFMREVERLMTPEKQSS
Protocol: Purified recombinant human FAAH (rhFAAH) was purchased from Cayman Chemical (Ann Arbor, MI, USA). The total volume for each incubation was 400 μL containing a final 0.5 ng/μL rhFAAH, 1 μM test compound, 1.25% ethanol or 1 μM PF-3845 (FAAH inhibitor), and 0.1% bovine serum albumin in Tris-EDTA buffer at pH 8.0). The incubation was conducted at room temperature. At 0, 5, 15, 30 and 60 minutes, an aliquot of 30 μL reaction mixtures was removed and mixed with 300 μL acetonitrile containing 5 ng/mL terfenadine and 10 ng/mL tolbutamide as internal standards to quench the reaction. The resulting mixture was centrifuged at 4000 rpm, 4 °C for 15 minutes, and 100 μL supernatant was ready for LC-MS/MS analysis to measure the formation of acid metabolite.
Acquity Ultra Performance LC system from Waters was used for sample analysis. The chromatography was performed on a reverse phase Kinetex 2.6 μm C18 column, 2.1×30 mm, 100 Å. The mobile phase A comprised of 0.1% formic acid in water and mobile phase B comprised of 0.1% formic acid in acetonitrile with a 1.5 min run time at the flow rate of 0.9 mL/min for the acid metabolite of test compounds. The mass spectrometer (API-5500 and API Q Trap 4000 Applied Biosystems/MDS SCIEX Instruments, Framingham, MA, USA) was operated under ESI positive or negative ion MRM mode.
The formation of acid metabolite was monitored and quantified using one calibration point of 1 μM. The observed rate constant (ke) for the acid metabolite formation was calculated by plotting the metabolite concentration versus time of incubation with the slope being ke and is shown in Table 1.

Row | Compound | ke (observed rate constant for the acid metabolite formation)
2 | CCCc1ccc(COc2ccc3c(c2)CCC(CN2CC(C(=O)NC)C2)=C3C)c(OC)c1 [Compound 2, 1-((6-((2-methoxy-4-propylbenzyl)oxy)-1-methyl-3,4-dihydronaphthalen-2-yl)methyl)-N-methylazetidine-3-carboxamide] | B (ke is less than 1.0 and more than 0)
3 | CCCc1ccc(COc2ccc3c(c2)CCC(CN2CC(C(=O)Nc4cccnc4)C2)=C3C)c(OC)c1 [Compound 3, 1-((6-((2-methoxy-4-propylbenzyl)oxy)-1-methyl-3,4-dihydronaphthalen-2-yl)methyl)-N-(pyridin-3-yl)azetidine-3-carboxamide] | B (ke is less than 1.0 and more than 0)
4 | CCCc1ccc(COc2ccc3c(c2)CCC(CN2CC(C(=O)Nc4cccnn4)C2)=C3C)c(OC)c1 [Compound 4, 1-((6-((2-methoxy-4-propylbenzyl)oxy)-1-methyl-3,4-dihydronaphthalen-2-yl)methyl)-N-(pyridazin-3-yl)azetidine-3-carboxamide] | A (ke is more than or equal to 1.0)
5 | CCCc1ccc(COc2ccc3c(c2)CCC(CN2CC(C(=O)NCCCF)C2)=C3C)c(OC)c1 [Compound 5, N-(3-fluoropropyl)-1-((6-((2-methoxy-4-propylbenzyl)oxy)-1-methyl-3,4-dihydronaphthalen-2-yl)methyl)azetidine-3-carboxamide] | A (ke is more than or equal to 1.0)
6 | CCCc1ccc(COc2ccc3c(c2)CCC(CN2CC(C(=O)NCC(F)(F)F)C2)=C3C)c(OC)c1 [Compound 6, 1-((6-((2-methoxy-4-propylbenzyl)oxy)-1-methyl-3,4-dihydronaphthalen-2-yl)methyl)-N-(2,2,2-trifluoroethyl)azetidine-3-carboxamide] | A (ke is more than or equal to 1.0)
7 | CCCc1ccc(COc2ccc3c(c2)CCC(CN2CC(C(=O)NCC4CC4)C2)=C3C)c(OC)c1 [Compound 7, N-(cyclopropylmethyl)-1-((6-((2-methoxy-4-propylbenzyl)oxy)-1-methyl-3,4-dihydronaphthalen-2-yl)methyl)azetidine-3-carboxamide] | A (ke is more than or equal to 1.0)
8 | CCCc1ccc(COc2ccc3c(c2)CCC(CN2CC(C(=O)NC4CC4)C2)=C3C)c(OC)c1 [Compound 8, N-cyclopropyl-1-((6-((2-methoxy-4-propylbenzyl)oxy)-1-methyl-3,4-dihydronaphthalen-2-yl)methyl)azetidine-3-carboxamide] | A (ke is more than or equal to 1.0)
9 | CCCc1ccc(COc2ccc3c(c2)CCC(CN2CC(C(=O)N[C@H](C)CC)C2)=C3C)c(OC)c1 [Compound 9, (R)—N-(sec-butyl)-1-((6-((2-methoxy-4-propylbenzyl)oxy)-1-methyl-3,4-dihydronaphthalen-2-yl)methyl)azetidine-3-carboxamide] | A (ke is more than or equal to 1.0)
10 | CCCc1ccc(COc2ccc3c(c2)CCC(CN2CC(C(=O)N[C@@H](C)CC)C2)=C3C)c(OC)c1 [Compound 10, (S)—N-(sec-butyl)-1-((6-((2-methoxy-4-propylbenzyl)oxy)-1-methyl-3,4-dihydronaphthalen-2-yl)methyl)azetidine-3-carboxamide] | B (ke is less than 1.0 and more than 0)
11 | CCCc1ccc(COc2ccc3c(c2)CCC(CN2CC(C(=O)NCCC(F)(F)F)C2)=C3C)c(OC)c1 [Compound 11, 1-((6-((2-methoxy-4-propylbenzyl)oxy)-1-methyl-3,4-dihydronaphthalen-2-yl)methyl)-N-(3,3,3-trifluoropropyl)azetidine-3-carboxamide] | A (ke is more than or equal to 1.0)
12 | CCCc1ccc(COc2ccc3c(c2)CCC(CN2CC(C(=O)N4CCC4)C2)=C3C)c(OC)c1 [Compound 12, azetidin-1-yl(1-((6-((2-methoxy-4-propylbenzyl)oxy)-1-methyl-3,4-dihydronaphthalen-2-yl)methyl)azetidin-3-yl)methanone] | A (ke is more than or equal to 1.0)
13 | CCCc1ccc(COc2ccc3c(c2)CCC(CN2CC(C(=O)Nc4ccncc4)C2)=C3C)c(OC)c1 [Compound 13, 1-((6-((2-methoxy-4-propylbenzyl)oxy)-1-methyl-3,4-dihydronaphthalen-2-yl)methyl)-N-(pyridin-4-yl)azetidine-3-carboxamide] | A (ke is more than or equal to 1.0)
14 | CCCCN(C)C(=O)C1CN(CC2=C(C)c3ccc(OCc4ccc(CCC)cc4OC)cc3CC2)C1 [Compound 14, N-butyl-1-((6-((2-methoxy-4-propylbenzyl)oxy)-1-methyl-3,4-dihydronaphthalen-2-yl)methyl)-N-methylazetidine-3-carboxamide] | C (ke is 0)
15 | CCCCNC(=O)C1CN(CC2=C(C)c3ccc(OCc4ccc(CCC)cc4OC)cc3CC2)C1 [Compound 15, N-butyl-1-((6-((2-methoxy-4-propylbenzyl)oxy)-1-methyl-3,4-dihydronaphthalen-2-yl)methyl)azetidine-3-carboxamide] | A (ke is more than or equal to 1.0)
16 | CCCc1ccc(COc2ccc3c(c2)CCC(CN2CC(C(=O)N(CC)CC)C2)=C3C)c(OC)c1 [Compound 16, N,N-diethyl-1-((6-((2-methoxy-4-propylbenzyl)oxy)-1-methyl-3,4-dihydronaphthalen-2-yl)methyl)azetidine-3-carboxamide] | C (ke is 0)
17 | CCCc1ccc(COc2ccc3c(c2)CCC(CN2CC(C(=O)N(C)CC)C2)=C3C)c(OC)c1 [Compound 17, N-ethyl-1-((6-((2-methoxy-4-propylbenzyl)oxy)-1-methyl-3,4-dihydronaphthalen-2-yl)methyl)-N-methylazetidine-3-carboxamide] | C (ke is 0)
18 | CCCNC(=O)C1CN(CC2=C(C)c3ccc(OCc4ccc(CCC)cc4OC)cc3CC2)C1 [Compound 18, 1-((6-((2-methoxy-4-propylbenzyl)oxy)-1-methyl-3,4-dihydronaphthalen-2-yl)methyl)-N-propylazetidine-3-carboxamide] | A (ke is more than or equal to 1.0)
19 | CCCc1ccc(COc2ccc3c(c2)CCC(CN2CC(C(=O)NCC)C2)=C3C)c(OC)c1 [Compound 19, N-ethyl-1-((6-((2-methoxy-4-propylbenzyl)oxy)-1-methyl-3,4-dihydronaphthalen-2-yl)methyl)azetidine-3-carboxamide] | A (ke is more than or equal to 1.0)
20 | CCCc1ccc(COc2ccc3c(c2)CCC(CN2CC(C(=O)NOC)C2)=C3C)c(OC)c1 [Compound 20, N-methoxy-1-((6-((2-methoxy-4-propylbenzyl)oxy)-1-methyl-3,4-dihydronaphthalen-2-yl)methyl)azetidine-3-carboxamide] | A (ke is more than or equal to 1.0)
21 | CCCc1ccc(COc2ccc3c(c2)CCC(CN2CC(C(=O)N(C)OC)C2)=C3C)c(OC)c1 [Compound 21, N-methoxy-1-((6-((2-methoxy-4-propylbenzyl)oxy)-1-methyl-3,4-dihydronaphthalen-2-yl)methyl)-N-methylazetidine-3-carboxamide] | A (ke is more than or equal to 1.0)
22 | CCCc1ccc(COc2ccc3c(c2)CCC(CN2CC(C(=O)N(C)C)C2)=C3C)c(OC)c1 [Compound 23, 1-((6-((2-methoxy-4-propylbenzyl)oxy)-1-methyl-3,4-dihydronaphthalen-2-yl)methyl)-N,N-dimethylazetidine-3-carboxamide] | B (ke is less than 1.0 and more than 0)

molecular target: S1P1 (Homo sapiens, UniProt P21453); assay: S1P1 receptor agonism (EC50 statement); assay type: biochemical; details: not given
Sequence (P21453 whole entry, species assumed): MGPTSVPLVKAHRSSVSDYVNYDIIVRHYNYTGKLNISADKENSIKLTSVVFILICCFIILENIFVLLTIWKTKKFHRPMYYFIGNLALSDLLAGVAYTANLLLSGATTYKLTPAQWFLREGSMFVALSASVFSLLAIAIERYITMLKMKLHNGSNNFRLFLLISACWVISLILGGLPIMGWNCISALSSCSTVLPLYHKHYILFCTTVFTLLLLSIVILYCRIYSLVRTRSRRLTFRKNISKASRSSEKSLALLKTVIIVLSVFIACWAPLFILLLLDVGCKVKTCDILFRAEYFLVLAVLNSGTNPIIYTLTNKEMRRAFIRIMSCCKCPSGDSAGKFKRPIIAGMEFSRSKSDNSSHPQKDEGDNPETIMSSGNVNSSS

Row | Compound | EC50 [nM]
23 | CCCc1ccc(COc2ccc3c(c2)CCC(CN2CC(C(=O)O)C2)=C3C)c(OC)c1 [Compound 1, ceralifimod] | 11.8
